Test results: PMC8268581, “Identification of 3,4-Dihydro-2H,6H-pyrimido[1,2-c][1,3]benzothiazin-6-imine Derivatives as Novel Selective Inhibitors of Plasmodium falciparum Dihydroorotate Dehydrogenase” (International Journal of Molecular Sciences, 2021)

Experiments:
P. falciparum 3D7 = assay: In vitro antimalarial assay (PfLDH/diaphorase); assay type: cell-based; settings: Plasmodium falciparum, growth inhibition, 72 h, 0.0003 to 10 µM, read-out: EC50 Pf3D7
Description: This assay was conducted using human red blood cells (RBC) following the guidelines of the ethics committee of Nagasaki University (permission no. 19). Human RBC was obtained from the Japanese Red Cross Society. The P. falciparum 3D7 strain was cultured in 2% hematocrit type O human RBC in RPMI-1640 medium (Gibco) supplemented with 23.8 mM sodium bicarbonate (Wako), 50 mg/L hypoxanthine (Wako), 25 mg/L gentamycin (Sigma), and 0.5% (w/v) AlbuMAX®® II (Gibco) under a 5% O2, 5% CO2, and 90% N2 atmosphere at 37 °C. Parasites were synchronized with 5% (w/v) D-sorbitol (Wako).
Synchronized ring-stage parasites at 0.3% parasitemia and 2% hematocrit were cultured in a 384-well plate at 25 µL with test compounds at a final concentration in the range of 0.0003 to 10 µM with a fixed DMSO concentration of 0.4% (v/v). Parasite growth was monitored by the diaphorase-coupled P. falciparum lactate dehydrogenase (PfLDH) assay, as previously described. After 72 h, 70 µL of the assay solution (150 mM lithium L-lactate (Wako), 0.05 mg/mL 3-acetylpyridine adenine dinucleotide (Oriental Yeast Co., Ltd., Tokyo, Japan), 0.2 mg/mL nitro blue tetrazolium (Wako), 1 unit/mL diaphorase, and 100 mM Tris-HCl pH 8.0) were mixed with the parasite culture and incubated at room temperature for 40 min, and the generated nitro blue formazan was measured at 650 nm using a SpectraMax®® Paradigm®® Multi-Mode Microplate Reader. […] The EC50 was calculated using GraphPad Prism 8.0 software from the mean of quadruplets values.

[1] = Cytotoxicity assay, DLD-1 (Cell Counting Kit-8); assay type: cell-based; settings: DLD-1 human colorectal adenocarcinoma cells
Description: (§1) Human dermal fibroblast cells (HDF, Zenbio, Inc., Durham, NC, USA) were cultured in Dulbecco’s Modified Eagle Medium/Nutrient Mixture F-12 medium (DMEM/F12, Gibco), human pancreatic carcinoma cells (PANC-1, DS Pharma Biomedical, Co., Ltd.) were cultured in DMEM (Gibco), and human colorectal adenocarcinoma cells (DLD-1, Taiho Pharmaceutical Company) were cultured in RPMI-1640 medium (FUJIFILM Wako Pure Chemicals). The culture mediums were supplemented with 10% (v/v) heat-inactivated fetal bovine serum (Gibco) and the cells were maintained at 37 °C under 5% CO2.
(§2) HDF, PANC-1, and DLD-1 were seeded at 2.5 × 10^4 cells/well on a 96-well plate and incubated at 37 °C under 5% CO2 overnight. The cells were then washed with PBS and the medium was replaced with 99 µL of fresh media. Then, 1 µL of the compounds or DMSO was added to the respective wells. As controls, wells containing 1% (v/v) DMSO in column 1 and wells containing only the culture medium in column 12 were used as the negative and positive controls, respectively. After 48 h of incubation, the cells were washed with PBS, and 99 µL of fresh media was replaced, followed by the addition of 10 µL of Cell Counting Kit-8 (Dojindo) to each well. After 3 h of incubation, the absorbance was measured at 450 nm using a SpectraMax®® Paradigm®® Multi-Mode microplate Reader. The calculation of cell viability in the test well was based on the absorbance of control wells according to the manufacturer’s protocol. The mean of quadruplet values was used to calculate the CC50 using GraphPad Prism 8.0 software.

[2] = Cytotoxicity assay, PANC-1 (Cell Counting Kit-8); assay type: cell-based; settings: PANC-1 human pancreatic carcinoma cells
Description: as §1, §2

[3] = molecular target: mammalian mitochondrial complexes II–III (Bos taurus, UniProt P00157+P35720+Q3T189+Q95123); assay: succinate-cytochrome c reductase (complexes II–III) activity assay; assay type: biochemical; settings: bovine heart mitochondria, range tested 0.0007 to 22.7 µM; read-out: IC50 Mammalian Mitochondrial CII–III
Description: Bovine heart mitochondria were prepared as previously described. The NADH-cytochrome c reductase (complexes I–III) and succinate-cytochrome c reductase (complexes II–III) activities were assayed in 384-well plates following an established protocol with small modifications. Complex I–III activity was assayed in a reaction mix containing 50 mM phosphate buffer pH 7.4, 2 mM KCN, 200 µM cytochrome c (cytochrome c from horse heart, Nacalai tesque), and 15 µg/mL mitochondria. Plates containing 1 µL serial dilutions of PfDHODH inhibitors were prepared and mixed with 38 µL of the reaction mix, as described above. The reaction was started by the addition of 5 µL of 2.6 mM NADH, and the assay was performed as described for PfDHODH, but at 550 nm and with 15 min of incubation. Complex II–III activity was assayed similarly to complex I–III activity but with 100 µM cytochrome c and 25 µg/mL mitochondria, and the reaction was started by 10 mM succinate. For both assays, DMSO and 5 µM ascochlorin were used as negative and positive controls, respectively. Assays were performed in triplicate.

[4] = Cytotoxicity assay, HDF (Cell Counting Kit-8); assay type: cell-based; settings: human dermal fibroblast (HDF) cells, normal human dermal fibroblasts
Description: as §1, §2

| Structure (SMILES) | EC50 (P. falciparum 3D7) | EC50 at 48 h [1] | EC50 at 48 h [2] | IC50 [3] | EC50 at 48 h [4] |
| --- | --- | --- | --- | --- | --- |
| N=C1Sc2cc(-c3ccc4ccccc4c3)ccc2C2=NCCCN12 [Compound 1] | 0.43 ± 0.18 µM | > 10 µM | > 10 µM | > 22.7 µM | > 10 µM |
| N=C1Sc2cc(-c3ccc4c(c3)OCO4)ccc2C2=NCCCN12 [Compound 3] | 1.16 ± 0.02 µM | > 10 µM | > 10 µM | > 22.7 µM | > 10 µM |
| N=C1Sc2cc(-c3ccc4c(c3)OCCO4)ccc2C2=NCCCN12 [Compound 4] | 1.07 ± 0.05 µM | > 10 µM | > 10 µM | > 22.7 µM | > 10 µM |
| N=C1Sc2cc(-c3ccc4cnccc4c3)ccc2C2=NCCCN12 [Compound 5] | 1.13 ± 0.05 µM | > 10 µM | > 10 µM | > 22.7 µM | > 10 µM |
| N=C1Sc2cc(-c3ccc4c(C(=O)OC(F)(F)F)c[nH]c4c3)ccc2C2=NCCCN12 [Compound 6] | 0.37 ± 0.05 µM | > 10 µM | > 10 µM | > 22.7 µM | > 10 µM |
| N=C1Sc2cc(-c3cc4ccccc4o3)ccc2C2=NCCCN12 [Compound 7] | 0.34 ± 0.01 µM | > 10 µM | > 10 µM | > 22.7 µM | > 10 µM |
| N=C1Sc2cc(/C=C/c3ccccc3)ccc2C2=NCCCN12 [Compound 8] | 0.63 ± 0.25 µM | > 10 µM | > 10 µM | > 22.7 µM | > 10 µM |
| CC(C)(C)N=C1Sc2cc(-c3cc4ccccc4s3)ccc2C2=NCCCN12 [Compound 10] | 2.77 ± 0.28 µM | > 10 µM | > 10 µM | > 22.7 µM | > 10 µM |
| N=C1Sc2cc(-c3ccccc3)ccc2C2=NCCCN12 [Compound 12] | 1.15 ± 0.07 µM | > 10 µM | > 10 µM | > 22.7 µM | > 10 µM |
| COC(=O)c1ccc(-c2ccc3c(c2)SC(=N)N2CCCN=C32)cc1 [Compound 13] | 1.06 ± 0.01 µM | > 10 µM | > 10 µM | > 22.7 µM | > 10 µM |
| N#Cc1ccc(-c2ccc3c(c2)SC(=N)N2CCCN=C32)cc1 [Compound 14] | 1.21 ± 0.04 µM | > 10 µM | > 10 µM | > 22.7 µM | > 10 µM |
| N=C1Sc2cc(-c3ccc(C(F)(F)F)cc3)ccc2C2=NCCCN12 [Compound 15] | 1 ± 0.05 µM | > 10 µM | > 10 µM | > 22.7 µM | > 10 µM |
| CSc1ccc(-c2ccc3c(c2)SC(=N)N2CCCN=C32)cc1 [Compound 17] | 1.62 ± 0.56 µM | > 10 µM | > 10 µM | > 22.7 µM | > 10 µM |
| N=C1Sc2cc(-c3ccc(OC(F)(F)F)cc3)ccc2C2=NCCCN12 [Compound 18] | 0.37 ± 0.13 µM | > 10 µM | > 10 µM | > 22.7 µM | > 10 µM |
